Some test systems named below: KM12; HOP-92; CAKI-1; NCI-H226; A549; OVCAR-4; SK-MEL-2; UO-31; A498; NCI-H522; UACC-62; HT-29; Malme-3M; IGROV-1; SW-620; EKVX; Hs-578T; MCF7; NCI/ADR-RES; DU-145.
Holding throughout (experiment): NCI tumour cell line growth inhibition, 48 h

The values below come from ChEMBL document CHEMBL1201862, “PubChem BioAssay data set” (2004).

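Each compound was tested at five concentrations against cells in 96-well plates for 48 hours. At the GI50, growth is halved.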 Calls of active or inactive are those of the source. Rule as the data show it: active = GI50 up to about 1.1 µM and inactive = higher.

Consider `C1CSCCSCCCS[C@@H]2CCCCC2SC1` (stereo partly specified), for which the GI50 is > 100 µM (inactive) in the assay with KM12; 65.2 µM (inactive) in the assay with HOP-92; > 100 µM (inactive) with CAKI-1; > 100 µM (inactive) with NCI-H226; > 100 µM (inactive) in the assay with A549; > 100 µM (inactive) in the assay on OVCAR-4. The GI50 in the assay with SK-MEL-2 was > 100 µM (inactive); in the assay on UO-31, > 100 µM (inactive); in the assay with A498 it was > 100 µM (inactive); in the assay on NCI-H522 it was 25.9 µM (inactive); with UACC-62, > 100 µM (inactive); with HT-29, > 100 µM (inactive). Besides, the GI50 with Malme-3M is > 100 µM (inactive); in the assay on IGROV-1, > 100 µM (inactive); in the assay with SW-620 it was 20.1 µM (inactive); in the assay with EKVX, > 100 µM (inactive).

As to `O=c1[nH]c2ccc(CC(=S)N3CCOCC3)cc2o1`, the GI50 with Hs-578T, in the assay with KM12, with CAKI-1, in the assay with NCI-H226, in the assay with MCF7 and with SK-MEL-2 was > 100 µM (inactive) in each case. Moreover, the GI50 with NCI/ADR-RES, with A498, in the assay on UACC-62, in the assay on HT-29, in the assay with Malme-3M and in the assay on IGROV-1 was > 100 µM (inactive) in each case. For the same compound, the GI50 in the assay on SW-620 and in the assay with EKVX was > 100 µM (inactive) each time.

Turning to `CCOC(=O)N1CCC2(CC1)C[C@](C)(C(C)=O)C(C)O2` (stereo partly specified), the GI50 in the assay on Hs-578T, in the assay with KM12, with HOP-92, in the assay on CAKI-1, in the assay with NCI-H226 and in the assay on A549 was > 100 µM (inactive) in each case. Further, the GI50 in the assay on MCF7, in the assay on OVCAR-4, in the assay on SK-MEL-2, in the assay on NCI/ADR-RES, in the assay on UO-31 and with A498 was > 100 µM (inactive) in each case. In addition, the GI50 with NCI-H522, in the assay on UACC-62, with HT-29, in the assay with Malme-3M, in the assay on IGROV-1 and with SW-620 was > 100 µM (inactive) throughout. The GI50 with EKVX was > 100 µM (inactive).

Take `COc1ccc(/C=C2\C(=O)N(C)C(=O)c3cc(OC)c(OC)cc32)cc1OC`: the GI50 was 23.4 µM (inactive) in the assay with HOP-92; 13.4 µM (inactive) with CAKI-1; 12.9 µM (inactive) with NCI-H226; 65.6 µM (inactive) in the assay on A549; 27.2 µM (inactive) in the assay on MCF7; 38.9 µM (inactive) in the assay on OVCAR-4. Moreover, the GI50 is 35.6 µM (inactive) in the assay on SK-MEL-2; 48 µM (inactive) in the assay with UO-31; 27.4 µM (inactive) in the assay with A498; 15.7 µM (inactive) with NCI-H522; 26.9 µM (inactive) with UACC-62; 25.3 µM (inactive) in the assay with DU-145. Moreover, the GI50 with HT-29 was 9.06 µM (inactive); in the assay on IGROV-1 it was 29.2 µM (inactive); in the assay with SW-620 it was 36.6 µM (inactive); in the assay with EKVX, 10.7 µM (inactive).

As to `CC1CCC2(C)C(CC=C(C=O)C2(O)C=O)C12CO2` (stereo unspecified), the GI50 is 3.21 µM (inactive) in the assay with KM12; 2.01 µM (inactive) with HOP-92; 2.96 µM (inactive) in the assay with CAKI-1; 0.665 µM (active) in the assay on NCI-H226; 10.4 µM (inactive) in the assay with A549; 2.23 µM (inactive) with OVCAR-4. Also, the GI50 with SK-MEL-2 is 2.52 µM (inactive); with UO-31 it was 1.81 µM (inactive); in the assay with A498, 6.7 µM (inactive); in the assay with NCI-H522, 2.31 µM (inactive); in the assay with UACC-62 it was 1.64 µM (inactive); in the assay with HT-29, 2.55 µM (inactive). Further, the GI50 in the assay on Malme-3M was 2.64 µM (inactive); in the assay with IGROV-1, 2.32 µM (inactive); with SW-620, 2.36 µM (inactive); in the assay with EKVX, 6.98 µM (inactive).

Consider `Nc1nc(NCc2ccccc2)cc(NCc2ccccc2)n1`, for which the GI50 in the assay with Hs-578T was 2.86 µM (inactive); in the assay with KM12 it was 4.28 µM (inactive); in the assay on HOP-92 it was 5.38 µM (inactive); in the assay with CAKI-1, 2.64 µM (inactive); in the assay with NCI-H226, 7.5 µM (inactive); with A549, 9.48 µM (inactive). The GI50 in the assay on MCF7 was 2.59 µM (inactive); with OVCAR-4 it was 9.89 µM (inactive); in the assay with SK-MEL-2, 8.81 µM (inactive); in the assay with NCI/ADR-RES, 3.23 µM (inactive); with UO-31, 6.31 µM (inactive); in the assay on A498 it was 0.668 µM (active). Moreover, the GI50 in the assay with NCI-H522 is 4.24 µM (inactive); with UACC-62 it was 3.67 µM (inactive); in the assay on HT-29, 2.88 µM (inactive); with Malme-3M, 5.66 µM (inactive); with IGROV-1 it was 4.44 µM (inactive); with SW-620 it was 5.21 µM (inactive). Also, the GI50 with EKVX is 9.93 µM (inactive).

On to `C#CCNC(=O)NC(CCCNC(=O)OCc1ccccc1)C(=O)OCc1ccccc1` (stereo unspecified), for which the GI50 in the assay with KM12 was > 100 µM (inactive); in the assay with HOP-92, 19.3 µM (inactive); in the assay on CAKI-1 it was 33.8 µM (inactive); in the assay with NCI-H226 it was > 100 µM (inactive); in the assay on A549 it was > 100 µM (inactive); with OVCAR-4, > 100 µM (inactive). Also, the GI50 with SK-MEL-2 was 33.7 µM (inactive); in the assay on UO-31 it was > 100 µM (inactive); in the assay on A498, > 100 µM (inactive); in the assay on NCI-H522, 25.9 µM (inactive); in the assay with UACC-62, 34.8 µM (inactive); in the assay with HT-29 it was > 100 µM (inactive). In addition, the GI50 in the assay on Malme-3M is 51.9 µM (inactive); with IGROV-1, > 100 µM (inactive); in the assay on SW-620 it was > 100 µM (inactive); with EKVX, > 100 µM (inactive).

As for `NC(=S)N/N=C1/C(=O)N(c2ccccc2)C(=O)C1C(=O)Nc1ccccc1` (stereo unspecified), the GI50 in the assay with KM12, in the assay with HOP-92, with CAKI-1, in the assay with NCI-H226, in the assay with A549 and in the assay with OVCAR-4 was > 100 µM (inactive) throughout. The GI50 with SK-MEL-2, in the assay with UO-31, in the assay with A498, with NCI-H522, with UACC-62 and with HT-29 was > 100 µM (inactive) each time. Also, the GI50 in the assay on Malme-3M, in the assay on IGROV-1, in the assay on SW-620 and in the assay with EKVX was > 100 µM (inactive) throughout.

Consider `O=C(Nc1ccccn1)c1cc2c(cc1Cl)Sc1nccn1S2(=O)=O`, for which the GI50 was > 100 µM (inactive) in the assay on Hs-578T; 33.6 µM (inactive) in the assay with KM12; 51.9 µM (inactive) with HOP-92; 36.5 µM (inactive) in the assay with CAKI-1; 24.2 µM (inactive) in the assay with NCI-H226; 34.8 µM (inactive) in the assay with A549. In addition, the GI50 in the assay on MCF7 was 41.8 µM (inactive); with OVCAR-4, 33 µM (inactive); in the assay on SK-MEL-2, 20 µM (inactive); in the assay with NCI/ADR-RES it was 31 µM (inactive); with UO-31, 27 µM (inactive); with A498 it was 45 µM (inactive). For the same compound, the GI50 in the assay with NCI-H522 was 39.1 µM (inactive); in the assay with UACC-62, 42 µM (inactive); in the assay with HT-29, 31.1 µM (inactive); with Malme-3M, 63 µM (inactive); in the assay on IGROV-1, 23.8 µM (inactive); in the assay on SW-620 it was 45 µM (inactive). Also, the GI50 in the assay with EKVX was 38.2 µM (inactive).

For `COc1ccc(C2=NOP(c3ccccc3)(c3ccccc3)(c3ccccc3)C2)cc1`, the GI50 was 34.1 µM (inactive) with KM12; 6.46 µM (inactive) in the assay on HOP-92; 25.1 µM (inactive) in the assay with CAKI-1; 25.9 µM (inactive) with NCI-H226; 22.5 µM (inactive) in the assay with A549; 29.6 µM (inactive) in the assay with OVCAR-4. The GI50 with SK-MEL-2 was 7.08 µM (inactive); with UO-31 it was 12.9 µM (inactive); in the assay with A498 it was 33.3 µM (inactive); in the assay on NCI-H522, 7.91 µM (inactive); with UACC-62, 13.8 µM (inactive); with HT-29, 1.55 µM (inactive). The GI50 in the assay on Malme-3M is 21.9 µM (inactive); in the assay on IGROV-1 it was 3.35 µM (inactive); in the assay on SW-620, 16.2 µM (inactive); in the assay with EKVX, 63.1 µM (inactive).

For the compound `O=C1O[C@@H](c2ccccc2)C[C@@H]1CN1CCOCC1`, the GI50 is > 100 µM (inactive) in the assay on KM12; > 100 µM (inactive) in the assay on HOP-92; 65.5 µM (inactive) in the assay with CAKI-1; > 100 µM (inactive) in the assay on NCI-H226; > 100 µM (inactive) in the assay with A549; > 100 µM (inactive) in the assay on OVCAR-4. Besides, the GI50 in the assay with SK-MEL-2, in the assay on UO-31, in the assay with A498, in the assay with NCI-H522, with UACC-62 and with HT-29 was > 100 µM (inactive) in each case. In addition, the GI50 in the assay on Malme-3M, in the assay with IGROV-1, in the assay with SW-620 and with EKVX was > 100 µM (inactive) throughout.

Consider `CSC(SC)=C1C(=O)N(c2ccccc2)N=C1C`, for which the GI50 with Hs-578T is 88.1 µM (inactive); in the assay with KM12, 41.1 µM (inactive); with HOP-92 it was 2.75 µM (inactive); in the assay on CAKI-1, 29 µM (inactive); with NCI-H226, 30.3 µM (inactive); in the assay with A549, 30.8 µM (inactive). The GI50 with MCF7 was 17.3 µM (inactive); in the assay on OVCAR-4 it was 34.3 µM (inactive); in the assay on SK-MEL-2 it was 20 µM (inactive); in the assay with NCI/ADR-RES, 31.2 µM (inactive); in the assay with A498, 29.4 µM (inactive); in the assay with NCI-H522, 17.5 µM (inactive). The GI50 in the assay on UACC-62 was 27 µM (inactive); in the assay on HT-29 it was 35.8 µM (inactive); in the assay on Malme-3M it was 21.7 µM (inactive); in the assay with IGROV-1, 29.3 µM (inactive); in the assay with SW-620, 32 µM (inactive); with EKVX it was 24 µM (inactive).
